Assay [1] deals with T1, PERK (Mus musculus, UniProt Q9Z2B5).
T1 construct: Immortalized MEFs were pretreated for 30 min with increasing concentrations of GSK’157 and the indicated compounds and stimulated with tunicamycin; endogenous in cells; host or cells: immortalized mouse embryonic fibroblasts (MEFs, C57Bl6/J)
T1 sequence (Q9Z2B5 29-1114): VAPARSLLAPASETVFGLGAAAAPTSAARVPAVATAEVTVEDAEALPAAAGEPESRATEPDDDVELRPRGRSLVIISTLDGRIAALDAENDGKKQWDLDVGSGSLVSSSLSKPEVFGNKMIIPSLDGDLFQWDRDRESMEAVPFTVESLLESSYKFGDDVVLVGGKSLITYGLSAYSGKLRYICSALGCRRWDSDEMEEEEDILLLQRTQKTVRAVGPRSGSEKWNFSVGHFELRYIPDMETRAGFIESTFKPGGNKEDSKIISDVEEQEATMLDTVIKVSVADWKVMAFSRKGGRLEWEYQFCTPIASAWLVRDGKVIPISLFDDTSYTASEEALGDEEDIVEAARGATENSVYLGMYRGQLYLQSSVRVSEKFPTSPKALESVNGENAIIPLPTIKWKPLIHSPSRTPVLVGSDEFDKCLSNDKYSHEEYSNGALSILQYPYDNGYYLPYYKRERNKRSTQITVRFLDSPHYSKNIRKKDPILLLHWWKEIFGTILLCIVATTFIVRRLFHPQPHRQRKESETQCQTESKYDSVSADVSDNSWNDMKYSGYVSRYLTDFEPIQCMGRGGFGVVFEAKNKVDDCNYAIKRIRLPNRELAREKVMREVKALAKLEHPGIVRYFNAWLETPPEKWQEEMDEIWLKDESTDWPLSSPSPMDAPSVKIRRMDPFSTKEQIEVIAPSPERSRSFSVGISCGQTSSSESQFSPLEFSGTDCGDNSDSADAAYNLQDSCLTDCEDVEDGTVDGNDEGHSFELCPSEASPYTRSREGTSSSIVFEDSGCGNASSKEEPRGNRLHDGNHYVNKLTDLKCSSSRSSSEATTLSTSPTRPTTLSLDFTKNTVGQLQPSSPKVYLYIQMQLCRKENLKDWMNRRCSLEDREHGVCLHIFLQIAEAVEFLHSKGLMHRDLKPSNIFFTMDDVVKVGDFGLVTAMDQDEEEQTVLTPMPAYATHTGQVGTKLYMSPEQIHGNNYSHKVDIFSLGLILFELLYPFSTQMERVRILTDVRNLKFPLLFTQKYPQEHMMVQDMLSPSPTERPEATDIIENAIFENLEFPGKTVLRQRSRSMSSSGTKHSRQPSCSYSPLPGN
As to the kind of experiment: PERK autophosphorylation by Western blot in tunicamycin-stimulated immortalized MEFs. The class given is cell-based. The conditions noted are these: immortalized MEFs, 30 min pretreatment, tunicamycin 1 μg/ml for 4 h; PERK autophosphorylation; read-out: PERK inhibition (IC50 estimated from a Western blot). As for the experimental part: (§1) MEFs were seeded in 6-well plates at a density of 300.000 cells/well in 2 mL. The next day, the cells were suspended in 1 mL of medium and pre-treated for 30 min with the indicated compounds at 1/5 dilutions series for PERK ranging from 5 to 0.04 µM and 1 μg/mL of Tm followed by 4 h treatment with 20 ng/mL of hTNF. For RIPK1, the cells were pre-treated at 1/10 dilutions series ranging from 10 to 0.01 nM, 50 µM zVAD.fmk and 1 µM TAKi before stimulation with 20 ng/mL of hTNF for 2.5 h. Then, the cells were washed two times with 1 mL of ice-cold PBS before lysis in 0.2 mL of Laemmli buffer 1x (10% (w/v) SDS, 50% glycerol, 0.5% bromophenol blue, 250 mM Tris–HCl pH 6.8) and 250 mM of dithiothreitol (DTT). The cell lysate was then collected and boiled at 95 °C for 10min and stored at −20°C. Proteins expression was later monitored by immunoblotting.
Their activities were evaluated by comparing the intensity of the signal to unstimulated MEFs (considered as zero phosphorylation) and Tunicamycin stimulated cells (considered as 100% PERK phosphorylation). […] The MEFs were pre-incubated for 30 min with the different compounds (0.01 nM–1000 nM) and then stimulated with human TNF (20 ng/mL) for 2.5 h. Similar to the PERK assessment, IC50 values for RIPK1 inhibition were estimated as a range of concentrations, and are reported in Table 1.

Assay [2] deals with T2, RIPK1 (Mus musculus, UniProt Q60855).
T2 construct: endogenous in cells; host or cells: immortalized mouse embryonic fibroblasts (MEFs, C57Bl6/J)
T2 sequence (Q60855 1-656): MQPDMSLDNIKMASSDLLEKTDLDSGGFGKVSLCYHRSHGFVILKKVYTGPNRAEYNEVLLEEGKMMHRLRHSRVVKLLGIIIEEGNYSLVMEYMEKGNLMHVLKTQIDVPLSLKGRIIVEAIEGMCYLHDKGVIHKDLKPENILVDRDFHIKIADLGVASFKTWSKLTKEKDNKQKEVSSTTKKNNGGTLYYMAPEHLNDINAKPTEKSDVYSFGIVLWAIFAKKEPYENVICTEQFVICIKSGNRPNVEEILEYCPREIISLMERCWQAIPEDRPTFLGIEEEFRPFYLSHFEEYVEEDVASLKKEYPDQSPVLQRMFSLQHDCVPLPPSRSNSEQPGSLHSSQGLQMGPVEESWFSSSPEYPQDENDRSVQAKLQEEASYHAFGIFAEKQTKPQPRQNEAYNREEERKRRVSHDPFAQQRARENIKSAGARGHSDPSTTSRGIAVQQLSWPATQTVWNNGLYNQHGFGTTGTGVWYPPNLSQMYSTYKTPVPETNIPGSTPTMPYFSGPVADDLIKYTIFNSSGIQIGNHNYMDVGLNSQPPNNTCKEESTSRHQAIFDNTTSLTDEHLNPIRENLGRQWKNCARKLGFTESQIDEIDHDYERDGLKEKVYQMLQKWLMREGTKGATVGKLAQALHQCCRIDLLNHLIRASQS
As to the kind of experiment: RIPK1 autophosphorylation (pS166) by Western blot in MEFs stimulated with hTNF + TAK1i + zVAD.fmk. The conditions noted are these: immortalised MEFs, 30 min pretreatment with zVAD.fmk 50 μM, TAK1i 1 μM and compound, hTNF 20 ng/ml for 2.5 h, read-out: RIPK1 inhibition (IC50 estimated from a Western blot). The assay is classed as cell-based. As for the experimental part:
as §1
Activation of PERK was induced by stimulation of the cells with Tunicamycin, as previsouly reported ([Bull and Thiede, 2012]). More precisely, the immortalised MEFs were pre-incubated for 30 min with the analogues 18–34 at different concentrations (0.04, 0.2, 1, and 5 µM) prior to 4 h stimulation with Tunicamycin (1 μg/mL). […] Their activities were evaluated by comparing the intensity of the signal to unstimulated MEFs (considered as zero phosphorylation) and Tunicamycin stimulated cells (considered as 100% PERK phosphorylation). The 12 compounds (18–20, 22–29 and 34) that had lost their inhibitory capacity on PERK were then tested for their ability to inhibit RIPK1 as shown in Figures 6A–H. Activation and autophosphorylation of RIPK1 was induced by stimulating the cells with TNF in the presence of TAK1 inhibitor and of the pan-caspases inhibitor zVAD.fmk, a well established necroptotic trigger ([Vanlangenakker et al., 2011]). The MEFs were pre-incubated for 30 min with the different compounds (0.01 nM–1000 nM) and then stimulated with human TNF (20 ng/mL) for 2.5 h. Similar to the PERK assessment, IC50 values for RIPK1 inhibition were estimated as a range of concentrations, and are reported in Table 1. These experiments provide an estimation of the specificity of our analogues against PERK and RIPK1 in comparison to the benchmark GSK’157 already reported as a potent PERK and RIPK1 inhibitor.

Assay [3] relates to immortalized MEFs. As to the kind of experiment: RIPK1 kinase-dependent necroptosis (hTNF + zVAD.fmk) in MEFs, Sytox Green.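 As to all read-outs here: cell death taken as background-corrected Sytox Green fluorescence relative to the maximal signal of cells fully permeabilized with 0.1% Triton X-100.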 The assay is classed as cell-based, mouse. The conditions noted are these: for IC50: Mus musculus; for necroptosis inhibition (in words): mouse cells (MEFs), RIPK1-dependent necroptosis.
Experimental: In brief, the cells were seeded in duplicate at 10,000 cells per well in a 96-well adherent plate and incubated overnight at 37°C with 5% CO2. […] All the compound stock solutions were prepared in DMSO at 200 µM concentration. After stimulating the cells with human TNF at 20 ng/mL the plate was transferred to the incubator. […] The cell death was calculated by subtracting the background fluorescence from the induced Sytox Green fluorescence and by dividing the obtained result by the maximal fluorescence (minus the background fluorescence) obtained by permeabilization of the cells by using Triton X-100 at a final concentration of 0.1%. Curves were plotted in GraphPad 9 for the IC50 calculation.
Consequently, the compounds were evaluated for their potential protection of RIPK1-mediated necroptosis following human TNF stimulation.
The test system of assay [4] is MEFs. In words: RIPK1 kinase-dependent apoptosis (hTNF + TAK1i) in MEFs, Sytox Green. The assay is classed as cell-based. The settings on record: Mus musculus, TAK1i + hTNF (100 pg/mL). The source says: In MEFs, TNF together with the pan caspases inhibitor zVAD.fmk induces RIPK1-dependent necroptosis while TNF together with TAK1 inhibitor induces RIPK1 kinase-dependent apoptosis. We also included the conditions selected for the Western blot experiments, where necroptosis was induced by the combination of hTNF, zVAD.fmk and TAK1 inhibitor.

In assay [5] the test system is HT-29. In words: Necroptosis (hTNF + TAK1i + zVAD.fmk) in HT-29 cells, Sytox Green. The settings on record: Homo sapiens, HT-29, read-out: Necroptosis hTNF + TAK1i + zVAD.fmk HT-29 IC50.
Experimental: In brief, the cells were seeded in duplicate at 10,000 cells per well in a 96-well adherent plate and incubated overnight at 37°C with 5% CO2. […] All the compound stock solutions were prepared in DMSO at 200 µM concentration. After stimulating the cells with human TNF at 20 ng/mL the plate was transferred to the incubator. Sytox Green intensity was measured in function of time at 0, 14 and 24 h with an excitation filter of 485 nm, an emission filter of 520 nm. The cell death was calculated by subtracting the background fluorescence from the induced Sytox Green fluorescence and by dividing the obtained result by the maximal fluorescence (minus the background fluorescence) obtained by permeabilization of the cells by using Triton X-100 at a final concentration of 0.1%. Curves were plotted in GraphPad 9 for the IC50 calculation.
To induce necroptosis in human colorectal adenocarcinoma cell line (HT-29) together with hTNF and the pan caspases inhibitor zVAD.fmk, TAK1 inhibitor is also needed.
[6] abbreviates: 24 h, immortalized MEFs, zVAD-fmk 50 μM + hTNF 20 ng/ml, Sytox Green at 24 h, Table 1 series, read-out: IC50 necroptosis.
The mark [7] stands for this setting: MEFs, hTNF + zVAD.fmk, read-out: IC50 necroptosis inhibition.

Read-outs that look alike come from different tables or passages of the source.

For orientation: IC50 means the concentration at which inhibition is half-maximal. As for `Cn1cc(-c2ccc3c(c2F)CCN3C(=O)Cc2ccc(F)cn2)c2c(N)ncnc21` [Compound 18], the results for the IC50 in assay [1], in assay [2] and in assay [3] (setting [6]) were > 5000 nM, ≥ 10 nM and 13.5 nM, respectively.
In the same order, the values of `Cn1cc(-c2ccc3c(c2F)CCN3C(=O)Cc2ccc(Cl)cn2)c2c(N)ncnc21` [Compound 19] are > 5000 nM, 1 to 10 nM and 2.5 nM.
With `Cn1cc(-c2ccc3c(c2F)CCN3C(=O)Cc2ccc(Br)cn2)c2c(N)ncnc21` [Compound 20], the figures for the half-inhibitory concentration (IC50) in assay [1], in assay [2] and in assay [3] (setting [6]) were > 5000 nM, 1 to 10 nM and 3.2 nM, respectively.
In the same order, the values of `Cc1ccc(CC(=O)N2CCc3c2ccc(-c2cn(C)c4ncnc(N)c24)c3F)nc1` [Compound 21] are 1000 to 5000 nM, ≥ 10 nM and 37 nM.
In the same order, the values of `COc1ccc(CC(=O)N2CCc3c2ccc(-c2cn(C)c4ncnc(N)c24)c3F)nc1` [Compound 23] are ≥ 5000 nM, ≥ 10 nM and 39 nM.
In the same order, the values of `Cn1cc(-c2ccc3c(c2F)CCN3C(=O)Cc2ccc(C3CC3)cn2)c2c(N)ncnc21` [Compound 24] are > 5000 nM, ≥ 10 nM and 33.5 nM.
For the compound `Cn1cc(-c2ccc3c(c2F)CCN3C(=O)Cc2ccc(C(C)(C)C)cn2)c2c(N)ncnc21` [Compound 25], the 50% inhibitory concentration (IC50) in assay [1] is > 5000 nM; in assay [2], ≥ 10 nM; in assay [3] (setting [6]), 40 nM.
As to `Cn1cc(-c2ccc3c(c2F)CCN3C(=O)Cc2ccc(O)cn2)c2c(N)ncnc21` [Compound 26], the concentration for half-maximal inhibition (IC50) is ≥ 5000 nM in assay [1], ≥ 10 nM in assay [2], 2530 nM in assay [3] (setting [6]) and > 2000 nM in assay [3] (setting [7]).
In the same order, the values of `Cn1cc(-c2ccc3c(c2F)CCN3C(=O)Cc2ccncc2)c2c(N)ncnc21` [Compound 27] are > 5000 nM, ≥ 10 nM, 3020 nM and > 2000 nM.
Regarding `Cn1cc(-c2ccc3c(c2F)CCN3C(=O)Cc2ccc(Cc3ccccc3)cn2)c2c(N)ncnc21` [Compound 28], the half-maximal inhibitory concentration (IC50) is ≥ 5000 nM in assay [1], ≥ 10 nM in assay [2] and 62 nM in assay [3] (setting [6]).
For `Cn1cc(-c2ccc3c(c2F)CCN3C(=O)Cc2ccc(-c3ccccc3)cn2)c2c(N)ncnc21` [Compound 29], the concentration for half-maximal inhibition (IC50) was > 5000 nM in assay [1], ≥ 10 nM in assay [2] and > 10000 nM in assay [3] (setting [6]).
Regarding `Cn1cc(-c2ccc3c(c2F)CCN3C(=O)Cc2ccc(F)cc2)c2c(N)ncnc21` [Compound 30], the figures for the half-inhibitory concentration (IC50) in assay [1], in assay [2] and in assay [3] (setting [6]) were 1000 to 5000 nM, 0.1 to 1 nM and 0.01 nM, respectively. The “fold higher potency than GSK’157 (necroptosis IC50)” value in assay [3] (MEFs, hTNF + zVAD.fmk) is reported as 40 fold.
In the case of `Cn1cc(-c2ccc3c(c2F)CCN3C(=O)Cc2ccc(Cl)cc2)c2c(N)ncnc21` [Compound 31], the values for the half-inhibitory concentration (IC50) in assay [1], in assay [2] and in assay [3] (setting [6]) were 1000 to 5000 nM, 0.1 to 1 nM and 0.4 nM, respectively.
In the same order, the values of `Cn1cc(-c2ccc3c(c2F)CCN3C(=O)Cc2ccc(Br)cc2)c2c(N)ncnc21` [Compound 32] are 1000 to 5000 nM, 1 to 10 nM and 0.3 nM.
Take `Cc1ccc(CC(=O)N2CCc3c2ccc(-c2cn(C)c4ncnc(N)c24)c3F)cc1` [Compound 33]: the concentration for half-maximal inhibition (IC50) in assay [1] was 1000 to 5000 nM; in assay [2], ≥ 10 nM; in assay [3] (setting [6]) it was > 10000 nM. Also, in assay [3], the “necroptosis inhibition (in words)” value is reported as “complete loss of necroptosis inhibition”.
As for `Cn1cc(-c2ccc3c(c2F)CCN3C(=O)Cc2ccc(C(F)(F)F)cc2)c2c(N)ncnc21` [Compound 34], the figures for the IC50 in assay [1], in assay [2] and in assay [3] (setting [6]) were ≥ 5000 nM, 1 to 10 nM and 1.1 nM, respectively.
For the compound `CN1C(=O)[C@@H](NC(=O)c2n[nH]c(Cc3ccccc3)n2)COc2ccccc21` [GSK’772, reference compound], the half-inhibitory concentration (IC50) in assay [3] (24 h, MEFs, hTNF + zVAD.fmk (20 ng/mL), Table 2, read-out: Necroptosis hTNF + zVAD.fmk MEFs IC50) is > 100 nM; in assay [4], > 100 nM; in assay [5] it was 0.2 nM. In assay [3], the “necroptosis inhibition (in words)” value is “no activity”.

Values taken from paper PMC10119423, “From PERK to RIPK1: Design, synthesis and evaluation of novel potent and selective necroptosis inhibitors” (Frontiers in Chemistry, 2023).
